Measured values taken from patent US8492310B2, “Herbicidal compositions containing benzoylpyrazole compounds” (priority 2008, dated 2013).
Where two headings read alike, the source gives them in different places.

Columns and labels:
Format in all cases: in vivo
[1] = tested on: crabgrass (Digitaria sanguinalis L.); assay: Foliar treatment pot test, visual growth inhibition rate, crabgrass (DS); details: Digitaria sanguinalis, foliar, read-out: Growth inhibition rate (%) of DS Measured value; for inhibition at 175 g/ha: 504 h, 21 DAT; for inhibition at 375 g/ha: 528 h, 3.1-4.0 leaf stage, 22 DAT
In short: (§1)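 Seeds were sown in upland soil pots, and plants were sprayed on the foliage at a predetermined leaf stage with herbicidal compositions diluted in water at 300 L/ha. Growth inhibition was rated visually. Expected combination activity was calculated by Colby's formula to assess synergy.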

[2] = tested on: barnyardgrass (Echinochloa crus-qalli L.); assay: Foliar treatment pot test, visual growth inhibition rate, barnyardgrass (EC); details: 4.0-5.0 leaf stage, read-out: Growth inhibition rate (%) of EC Measured value; for inhibition at 250 g/ha: 192 h, 8 DAT; for inhibition at 125 g/ha: 504 h, 21 DAT
Text: (§2) When the herbicidal activity in a case where two active ingredients are combined, is larger than the simple sum of the respective herbicidal activities of the two active ingredients (the expected activity), it is called a synergistic effect. The activity expected by the combination of two active ingredients can be calculated as follows (Colby S. R., “Weed”, vol. 15, p. 20-22, 1967). E=α+β−(α×β÷100) where
(§3) Upland field soil was put into a 1/1,000,000 hectare pot, and seeds of various plants (barnyardgrass (Echinochloa crus-qalli L.), crabgrass (Digitaria sanguinalis L.), giant foxtail (Setaria faberi Herrm.), velvetleaf (Abutilon theophrasti MEDIC.) and prickly sida (Sida spinosa L.)) were sown. When the respective plants reached predetermined leaf stage, herbicidal compositions in predetermined amounts were diluted with water in an amount corresponding to 300 L/ha and applied for foliar treatment by a small sprayer.
(§4) Further, in accordance with the above Colby's formula, the growth inhibition rate (calculated value) was calculated. In Tables, with respect to the compound Q, Compound Nos. in Table 1 are described, and with respect to other herbicidal compounds, common names are described. Further, in Tables, barnyardgrass is represented by “EC”, crabgrass by “DS”, giant foxtail by “SF”, velvetleaf by “AT”, and prickly sida by “SS”.

[3] = tested on: velvetleaf (Abutilon theophrasti MEDIC.); assay: Foliar treatment pot test, visual growth inhibition rate, velvetleaf (AT); details: Abutilon theophrasti, foliar, read-out: Growth inhibition rate (%) of AT Measured value; for inhibition at 300 g/ha: 3.1-3.4 leaf stage
In short: as §1

[4] = tested on: prickly sida (Sida spinosa L.); assay: Foliar treatment pot test, visual growth inhibition rate, prickly sida (SS); details: Sida spinosa, foliar, read-out: Growth inhibition rate (%) of SS Measured value; for inhibition at 63 g/ha / inhibition at 125 g/ha / inhibition at 250 g/ha: 504 h, 21 DAT
Text: as §2, §3, §4

[5] = 336 h, 4.6-5.3 leaf stage, 14 DAT
[6] = 504 h, 3.0-3.8 leaf stage, 21 DAT
[7] = 504 h, 4.0-4.5 leaf stage, 21 DAT

## CCNc1nc(Cl)nc(NC(C)C)n1 [Atrazine, atrazine]
[1]; 336 h, 4.0-4.5 leaf stage, 14 DAT, 50 g/ha
  inhibition at 50 g/ha: 20%
[1]; 336 h, 4.0-4.5 leaf stage, 14 DAT, 400 g/ha
  inhibition at 400 g/ha: 30%
[1]; 336 h, 4.0-4.5 leaf stage, 14 DAT, 800 g/ha
  inhibition at 800 g/ha: 40%
[1]; 336 h, 5.0-6.0 leaf stage, 14 DAT, 500 g/ha
  inhibition at 500 g/ha: 0%
[1]; 336 h, 5.0-6.0 leaf stage, 14 DAT, 1000 g/ha
  inhibition at 1000 g/ha: 10%
[1]; 336 h, 5.0-6.0 leaf stage, 14 DAT, 2000 g/ha
  inhibition at 2000 g/ha: 25%
[1]; 3.5-4.3 leaf stage
  inhibition at 175 g/ha: 0%
[1]
  inhibition at 375 g/ha: 0%
[2]
  inhibition at 250 g/ha: 10%
  inhibition at 125 g/ha: 0%
[3]; [5]
  inhibition at 500 g/ha: 45%
  inhibition at 1000 g/ha: 60%
  inhibition at 2000 g/ha: 70%
[3]; 480 h, 3.1-3.5 leaf stage, 20 DAT, 50 g/ha
  inhibition at 50 g/ha: 30%
[3]; 480 h, 3.1-3.5 leaf stage, 20 DAT, 100 g/ha
  inhibition at 100 g/ha: 30%
[3]; 480 h, 3.1-3.5 leaf stage, 20 DAT, 200 g/ha
  inhibition at 200 g/ha: 35%
[3]; 480 h, 3.1-3.5 leaf stage, 20 DAT, 400 g/ha
  inhibition at 400 g/ha: 40%
[3]; 480 h, 3.1-3.5 leaf stage, 20 DAT, 600 g/ha
  inhibition at 600 g/ha: 80%
[3]; 480 h, 3.1-3.5 leaf stage, 20 DAT, 800 g/ha
  inhibition at 800 g/ha: 100%
[3]; [6]
  inhibition at 175 g/ha: 0%
[3]; 528 h, 4.0-4.4 leaf stage, 22 DAT, 375 g/ha
  inhibition at 375 g/ha: 25%
[4]; 3.0-3.3 leaf stage
  inhibition at 63 g/ha: 30%
  inhibition at 125 g/ha: 45%
  inhibition at 250 g/ha: 65%

## CCNc1nc(Cl)nc(NC(C)(C)C)n1 [Terbuthylazine, terbuthylazine]
[1]; 336 h, 3.5-4.3 leaf stage, 14 DAT, 300 g/ha
  inhibition at 300 g/ha: 25%
[1]; 3.5-4.3 leaf stage
  inhibition at 175 g/ha: 0%
[1]
  inhibition at 375 g/ha: 0%
[2]
  inhibition at 250 g/ha: 10%
  inhibition at 125 g/ha: 0%
[3]; 480 h, 20 DAT
  inhibition at 300 g/ha: 50%
[3]; [6]
  inhibition at 175 g/ha: 0%
[3]; 504 h, 21 DAT
  inhibition at 300 g/ha: 50%
[3]; [7]
  inhibition at 500 g/ha: 30%
  inhibition at 1000 g/ha: 45%
  inhibition at 2000 g/ha: 55%
[3]; 528 h, 4.0-4.4 leaf stage, 22 DAT
  inhibition at 175 g/ha: 15%
[4]; 480 h, 1.5-2.4 leaf stage, 20 DAT, 100 g/ha
  inhibition at 100 g/ha: 55%
[4]; 3.0-4.0 leaf stage
  inhibition at 63 g/ha: 0%
  inhibition at 125 g/ha: 0%
  inhibition at 250 g/ha: 20%
